Measured values from patent publication US5691362A, “Substituted benzene-fused hetero- and carbocyclics as nuerokinin antagonists” (Schering-Plough Corporation, priority 1996, dated 1997).
Where two headings read alike, the source gives them in different places.

How the values were obtained:
[1] = target: T1, human neurokinin 2 (NK2) receptor (Homo sapiens, UniProt P21452); assay: Neurokinin receptor binding assay, NK2 ([3H]-Neurokinin A); details: for inhibition at 1 µM: read-out: % Inhibition NK2 (1 μM dose)
T1 construct: expressed in transfected cells; host or cells: Chinese hamster ovary (CHO) cells, membranes
T1 sequence (P21452 1-398): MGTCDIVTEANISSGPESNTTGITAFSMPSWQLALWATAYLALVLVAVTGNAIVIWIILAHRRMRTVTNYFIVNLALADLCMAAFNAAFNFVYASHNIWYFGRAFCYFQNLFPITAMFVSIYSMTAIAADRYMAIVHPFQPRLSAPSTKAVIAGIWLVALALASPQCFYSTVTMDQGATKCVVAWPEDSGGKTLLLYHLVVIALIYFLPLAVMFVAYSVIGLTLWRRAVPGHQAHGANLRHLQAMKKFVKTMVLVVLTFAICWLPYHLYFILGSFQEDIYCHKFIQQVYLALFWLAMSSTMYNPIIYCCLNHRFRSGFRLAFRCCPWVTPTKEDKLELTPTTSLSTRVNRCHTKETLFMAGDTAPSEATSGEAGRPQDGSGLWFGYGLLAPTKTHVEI
Method: (§1) Chinese Hamster ovary (CHO) cells transfected with the coding regions for the human neurokinin 1 (NK1) of the human neurokinin 2 (NK2) receptors are grown in Dulbecco's minimal essential medium supplemented with 10% fetal calf serum, 0.1 mM non-essential amino acids, 2 mM glutamine, 100 units/ml of penicillin and streptomycin, and 0.8 mg of G418/ml at 37° C. in a humidified atmosphere containing 5% CO2.
(§2) Cells are detached from T-175 flasks with a sterile solution containing 5 mM EDTA in phosphate buffered saline. Cells are harvested by centrifugation and washed in RPMI media at […] for 5 minutes. The pellet is resuspended in Tris-HCl (pH7.4) containing 1 μM phsphoramidon and 4 ug/ml of chymostatin at a cell density of 30×10^6 cells/ml. The suspension is then homogenized in a Brinkman Polytron (setting 5) for 30-45 seconds. The homogenate is centrifuged at 800×g for 5 min at 4° C. to collect unbroken cells and nuclei. The supernatant is centrifuged in a Sorvall RC5C at 19,000 rpm ([…]) for 30 min at 4° C. The pellet is resuspended, an aliquot is removed for a protein determination (BCA) and washed again. The resulting pellet is stored at -80° C.
(§3) To assay receptor binding, 50 μl of [^3 H]-Substance P (9-Sar, 11-Met) (specific activity 41 Ci/mmol) (Dupont-NEN) (0.8 nM for the NK-1 assay) or [^3 H]-Neurokinin A (specific activity 114 Ci/mmole) (Zenca) (1.0 nM for the NK-2 assay) is added to tubes containing buffer (50 mM Tris-HCl (pH 7.4) with 1 mM MnCl2 and 0.2% Bovine Serum Albumin) and either DMSO or test compound. Binding is initiated by the addition of 100 μl of membrane (10-20 μg) containing the human NK-1 or NK-2 receptor in a final volume of 200 μl. After 40 minutes at room temperature, the reaction is stopped by rapid filtration onto Whatman GF/C filters which have been presoaked in 0.3% polyethyleneimine. Filters are washed 2 times with 3 ml of 50 mM Tris-HCl (pH7.4). Filters are added to 6 mls of Ready-Safe liquid scintillation cocktail and quantified by liquid scintillation spectrometry in a LKB 1219 RackBeta counter. Non-specific binding is determined by the addition of either 1 μM of CP-99994 (NK-1) or 1 μM SR-48968 (NK-2) (both synthesized by the chemistry department of Schering-Plough Research Institute). IC50 values are determined from competition binding curves and Ki values are determined according to Cheng and Prusoff using the experimentally determined value of 0.8 nM for the NK-1 receptor and 2.4 nM for the NK-2 receptor.
(§4) % Inhibition is the difference between the percent of maximum specific binding (MSB) and 100%. The percent of MSB is defined by the following equation, wherein "dpm" is disintegrations per minute: [formula]

[2] = target: T2, human neurokinin 1 (NK1) receptor (Homo sapiens, UniProt P25103); assay: Neurokinin receptor binding assay, NK1 ([3H]-Substance P); details: for inhibition at 1 µM: read-out: % Inhibition NK1 (1 μM dose)
T2 construct: expressed in transfected cells; host or cells: Chinese hamster ovary (CHO) cells, membranes
T2 sequence (P25103 whole entry): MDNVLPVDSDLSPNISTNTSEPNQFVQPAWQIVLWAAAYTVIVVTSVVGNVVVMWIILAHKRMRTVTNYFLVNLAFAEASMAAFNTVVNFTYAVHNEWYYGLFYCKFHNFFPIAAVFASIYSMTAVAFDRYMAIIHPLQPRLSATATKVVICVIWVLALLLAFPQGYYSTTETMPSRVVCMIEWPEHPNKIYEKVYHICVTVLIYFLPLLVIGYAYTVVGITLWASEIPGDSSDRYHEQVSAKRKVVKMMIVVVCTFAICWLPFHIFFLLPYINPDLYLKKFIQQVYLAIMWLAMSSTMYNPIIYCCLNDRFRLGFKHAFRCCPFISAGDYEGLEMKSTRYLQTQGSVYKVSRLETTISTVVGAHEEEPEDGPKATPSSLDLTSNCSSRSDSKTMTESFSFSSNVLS
Method: as §1, §2, §3, §4

[3] = CHO membranes, human NK-2 receptor, [3H]-Neurokinin A 1.0 nM, Cheng-Prusoff, read-out: Ki (NK2)
[4] = CHO membranes, human NK-1 receptor, [3H]-Substance P 0.8 nM, Cheng-Prusoff, read-out: Ki (NK1)

Row | Structure (SMILES) | inhibition at 1 µM [1] [%] | Ki [1, 3] [nM] | Ki [2, 4] [nM] | Ki [1] [nM] | Ki [2] [nM] | inhibition at 1 µM [2] [%]
1 | COc1cc(C(=O)N(C)CC(CCN(C)CCc2c[nH]c3ccc(F)cc23)c2ccc(Cl)c(Cl)c2)cc(OC)c1OC (racemic) [Example 7c] | 100 | – | – | – | – | –
2 | COc1cc(C(=O)N(C)CC(CCN(C)CCCc2c[nH]c3ccccc23)c2ccc(Cl)c(Cl)c2)cc(OC)c1OC (stereo not shown) [Example 7b] | – | 217 | 19 | – | – | –
3 | COc1cc(C(=O)N(C)CC(CCN[C@@H](Cc2c[nH]c3ccccc23)C(=O)O)c2ccc(Cl)c(Cl)c2)cc(OC)c1OC (stereo partly shown) [Example 7d] | – | 30 | 233 | – | – | –
4 | Cc1cc(C(=O)N(C)CC(CCN(C)CCc2c[nH]c3ccccc23)c2ccc(Cl)c(Cl)c2)cc(Cl)n1 (stereo not shown) [Example 12c] | 93 | – | – | 39 | 103 | 82
5 | CN(CCc1c[nH]c2ccccc12)CCC1(c2ccc(Cl)c(Cl)c2)CCN(C(=O)c2cc(C(F)(F)F)cc(C(F)(F)F)c2)C1 (stereo not shown) [Example 14b] | 88 | – | – | 143 | 21 | 81
